In series [1] the target is T1, Recombinant human tyrosyl-DNA-phosphodiesterase 1 (Tdp1) (Homo sapiens, UniProt Q9NUW8).
T1 construct: made in house; host or cells: Escherichia coli
In words: Tdp1 inhibition, removal of BHQ1 quencher from 3'-end of FAM-labelled oligonucleotide (fluorescence). It counts as biochemical. The settings on record: 1.3 nM Tdp1, 50 nM oligonucleotide, pH 8.0; read-out: IC50 (concentration of an inhibitor that reduces an enzyme's activity by half) towards Tdp1. The source says: Recombinant human tyrosyl-DNA-phosphodiesterase 1 (EC number 3.1.4.) was expressed in an Escherichia coli system (plasmid pET 16B-Tdp1 provided by Dr. K. W. Caldecott, Sussex University, UK) and isolated as described in [2, 32]. The reaction of removing Black Hole Quencher 1 (BHQ1) from 3′-end of an oligonucleotide, catalyzed by Tdp1, is used as the test system for determining the inhibitory properties of the test compounds. At the 5′-end of an oligonucleotide there is (5,6)-FAM, a fluorophore whose fluorescence intensity increases after removing the quencher. POLARstar OPTIMA fluorimeter (BMG LABTECH) was used to measure fluorescence.
The reaction mixtures (volume 200 μl) contained the buffer (50 mM Tris-HCl, pH 8.0; 50 mM NaCl; 7 mM mercaptoethanol), 50 nM oligonucleotide and different concentrations of the inhibitor. The reaction was initiated by adding Tdp1 to a final concentration of 1.3 nM. The measurements were performed in linear range of dependence of reaction rate to time (up to 8 minutes) each 55 seconds. The action of the disclosed compounds was assessed by IC50 value (concentration of an inhibitor that reduces an enzyme's activity by half). IC50 value was calculated using MARS Data Analisys 2.0 software (BMG LABTECH).
A typical curve of relation of inhibitor concentration to the rate of reaction, catalyzed by Tdp1, is presented at FIG. 2.

A short description of series [2]: Acute toxicity in mice, single oral administration. To be noted: CD-1, mouse, in vivo, oral; per os, male mice, single dose. Here is the method: (§1) Assessment of acute toxicity of the disclosed compound was performed using outbred male CD-1 mice with SPF status. The test compound was administered in 62.5 mg/kg, 125 mg/kg, 250 mg/kg, 500 mg/kg, 1000 mg/kg, 2000 mg/kg and 5000 mg/kg doses (5 animals per group) in 0.5 ml volume once orally as a suspension in 0.5% aqueous solution of carboxymethyl cellulose.

In series [3] the test system is outbred male CD-1 mice. Kind of series: Acute toxicity in mice, single oral administration. To be noted: male, CD-1, mouse, in vivo. Here is the method: as §1

This note sets out measurements from patent publication US10399965B2 (INNOVATIVE PHARMACOLOGY RESEARCH OOO (IPHAR), priority 2016, dated 2019).

T1 sequence (Q9NUW8 whole entry): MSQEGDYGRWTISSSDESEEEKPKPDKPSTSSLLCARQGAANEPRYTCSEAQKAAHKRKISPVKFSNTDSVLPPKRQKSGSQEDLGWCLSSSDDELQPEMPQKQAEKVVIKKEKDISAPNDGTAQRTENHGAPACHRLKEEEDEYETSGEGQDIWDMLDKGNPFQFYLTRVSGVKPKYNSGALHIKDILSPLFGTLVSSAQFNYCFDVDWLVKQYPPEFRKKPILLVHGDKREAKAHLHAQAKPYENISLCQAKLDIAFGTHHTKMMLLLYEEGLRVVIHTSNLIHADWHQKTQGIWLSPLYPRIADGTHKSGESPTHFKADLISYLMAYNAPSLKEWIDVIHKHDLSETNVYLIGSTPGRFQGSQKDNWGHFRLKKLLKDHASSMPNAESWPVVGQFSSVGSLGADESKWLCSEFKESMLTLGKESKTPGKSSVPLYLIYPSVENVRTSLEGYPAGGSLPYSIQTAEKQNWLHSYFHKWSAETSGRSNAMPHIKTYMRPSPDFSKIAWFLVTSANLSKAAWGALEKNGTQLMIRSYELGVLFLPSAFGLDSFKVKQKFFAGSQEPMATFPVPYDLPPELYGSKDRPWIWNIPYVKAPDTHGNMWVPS

Take `CC(=O)C1=C(O)C=C2Oc3c(-c4csc(N/N=C/c5ccc(Br)cc5)n4)c(O)c(C)c(O)c3C2(C)C1=O` (stereo not drawn) [Compound I, 2-acetyl-6-(2-(2-(4-bromobenzylidene)hydrazinyl)thiazole-4-yl)-3,7,9-trihydroxy-8,9b-dimethyldibenzo[b,d] furan-1(9bh)-one]: the IC50 in series [1] was 26 ± 11 nM. Moreover, the LD50 in series [2] was greater than 5000 mg/kg. Also, the maximal tolerated dose entry in series [3] is recorded as “no less than 5000 mg/kg”.

As usually defined, the LD50 is the dose expected to kill half of the subjects tested. Read a low LD50 as greater toxicity.
